According to patent publication US9018392B1, “Compounds, compositions and methods for crop enhancement” (Active AgriProducts Inc., priority 2014, dated 2015):

Tests used:
Format in all cases: in vivo
wheat [1] = experiment: Experiment 1 wheat seed germination, laboratory conditions, seedling trays; conditions: 20 ppm and 40 ppm seed treatment
Description: (§1) For the Experiments described below, application of 1,2-dimethyl-4-dimethylaminomethyl-5-hydroxy benzimidazole (referred to herein as INTRINSIC™) was by way of seed treatment. Treated seeds were prepared by mixing 1.0 kg of seed and 2.0 mL of an aqueous solution of INTRINSIC™ comprising 0.1% potassium hydroxide in a ZIPLOC™ bag. Control seeds were prepared by mixing 1.0 kg of seed and 2.0 mL of aqueous 0.1% potassium hydroxide solution in a ZIPLOC™ bag. The seeds and solutions were sufficiently mixed to wet the seeds. The seeds were dried after being wetted. […] Experiment 1 tested the effects of 20 ppm and 40 ppm INTRINSIC™ on wheat seed germination under laboratory conditions. Treated and control seeds were grown in seedling trays lined with moistened tissue.

wheat [2] = experiment: Experiment 2(a) wheat root growth, laboratory conditions, seedling trays; conditions: 20 ppm and 40 ppm seed treatment; 72 hours; FIG. 2(a)
Description: as §1, with “Experiment 2(a)” for “Experiment 1”, “wheat root growth” for “wheat seed germination”, “tissue. Experiment 2(b) tested the effects of 40 ppm INTRINSIC™ on wheat root growth under greenhouse conditions. Experiment 2(c) tested the effects of 40 ppm INTRINSIC™ on wheat root growth under laboratory conditions. Treated and control seeds were grown in agar culture medium. Results at 8 days are shown Figure in FIG. 2(c).” for “tissue.”

wheat [3] = experiment: Experiment 2(b) wheat root growth, greenhouse conditions; conditions: 40 ppm seed treatment, 10 days, FIG. 2(b)
Description: as §1, with “Experiment 2(a)” for “Experiment 1”, “wheat root growth” for “wheat seed germination”, “tissue. Experiment 2(b) tested the effects of 40 ppm INTRINSIC™ on wheat root growth under greenhouse conditions. Experiment 2(c) tested the effects of 40 ppm INTRINSIC™ on wheat root growth under laboratory conditions. Treated and control seeds were grown in agar culture medium. Results at 8 days are shown Figure in FIG. 2(c).” for “tissue.”

wheat [4] = experiment: Experiment 2(c) wheat root growth, laboratory conditions, agar culture medium; conditions: 40 ppm seed treatment, 8 days, FIG. 2(c)
Description: as §1, with “Experiment 2(a)” for “Experiment 1”, “wheat root growth under laboratory conditions. […] Experiment 2(b) tested the effects of 40 ppm INTRINSIC™ on wheat root growth under greenhouse conditions. Experiment 2(c) tested the effects of 40 ppm INTRINSIC™ on wheat root growth” for “wheat seed germination”, “in agar culture medium. Results at 8 days are shown Figure in FIG. 2(c).” for “in seedling trays lined with moistened tissue.”

canola [5] = experiment: Experiment 3 canola root growth, greenhouse conditions; conditions: 40 ppm seed treatment; 10 days
Description: as §1, with “Experiment 3” for “Experiment 1”, “of” for “of 20 ppm and”, “on canola root growth” for “on wheat seed germination”, “under greenhouse” for “under laboratory”, “conditions.” for “conditions. Treated and control seeds were grown in seedling trays lined with moistened tissue.”

soy bean [6] = experiment: Experiment 4 soy bean root growth, greenhouse conditions; conditions: 40 ppm seed treatment; 10 days
Description: as §1, with “Experiment 4” for “Experiment 1”, “of” for “of 20 ppm and”, “on soy bean root growth” for “on wheat seed germination”, “under greenhouse” for “under laboratory”, “conditions.” for “conditions. Treated and control seeds were grown in seedling trays lined with moistened tissue.”

corn = experiment: Experiment 5 corn root growth, greenhouse conditions; conditions: 40 ppm seed treatment; 10 days
Description: as §1, with “Experiment 5” for “Experiment 1”, “of” for “of 20 ppm and”, “on corn root growth” for “on wheat seed germination”, “under greenhouse” for “under laboratory”, “conditions.” for “conditions. Treated and control seeds were grown in seedling trays lined with moistened tissue.”

wheat [7] = experiment: Experiment 6 wheat growth, field test conditions; conditions: 20 ppm and 40 ppm, alone and combined with CRUISER MAXX™ and DIVIDEND™, 10 days
Description: For the Experiments described below, application of 1,2-dimethyl-4-dimethylaminomethyl-5-hydroxy benzimidazole (referred to herein as INTRINSICTM) was by way of seed treatment. Treated seeds were prepared by mixing 1.0 kg of seed and 2.0 mL of an aqueous solution of INTRINSICTM comprising 0.1% potassium hydroxide in a ZIPLOCTM bag. Control seeds were prepared by mixing 1.0 kg of seed and 2.0 mL of aqueous 0.1% potassium hydroxide solution in a ZIPLOCTM bag. The seeds and solutions were sufficiently mixed to wet the seeds. The seeds were dried after being wetted. […] Experiment 6 tested the effects of 20 ppm and 40 ppm INTRINSICTM, alone and combined with known seed treatments (CRUISER […] and […], from SyngentaTM Canada Inc., applied per manufacturer's recommendations), on wheat growth under field test conditions.

canola [8] = experiment: Experiment 7 canola growth, field test conditions, first site; conditions: 20 ppm and 40 ppm seed treatment, 10 days
Description: (§2) For the Experiments described below, application of 1,2-dimethyl-4-dimethylaminomethyl-5-hydroxy benzimidazole (referred to herein as INTRINSIC™) was by way of seed treatment. Treated seeds were prepared by mixing 1.0 kg of seed and 2.0 mL of an aqueous solution of INTRINSIC™ comprising 0.1% potassium hydroxide in a ZIPLOC™ bag. Control seeds were prepared by mixing 1.0 kg of seed and 2.0 mL of aqueous 0.1% potassium hydroxide solution in a ZIPLOC™ bag. The seeds and solutions were sufficiently mixed to wet the seeds. The seeds were dried after being wetted. […] Experiments 7 and 8 tested the effects of 20 ppm and 40 ppm INTRINSIC™, on canola growth under field test conditions.

canola [9] = experiment: Experiment 8 canola growth, field test conditions, second site; conditions: 10 days
Description: as §2

wheat [10] = experiment: Experiment 9 wheat yield, field test conditions; conditions: crop maturation (approximately 90 days)
Description: For the Experiments described below, application of 1,2-dimethyl-4-dimethylaminomethyl-5-hydroxy benzimidazole (referred to herein as INTRINSICTM) was by way of seed treatment. Treated seeds were prepared by mixing 1.0 kg of seed and 2.0 mL of an aqueous solution of INTRINSICTM comprising 0.1% potassium hydroxide in a ZIPLOCTM bag. Control seeds were prepared by mixing 1.0 kg of seed and 2.0 mL of aqueous 0.1% potassium hydroxide solution in a ZIPLOCTM bag. The seeds and solutions were sufficiently mixed to wet the seeds. The seeds were dried after being wetted. […] Experiment 9 tested the effects of 40 ppm INTRINSICTM, CRUISER […], and the combination of the two, on wheat yield under field test conditions. CRUISER […] was applied per the manufacturer's recommendations. FIGS. 9(a) and 9(b) display yield results at crop maturation (approximately 90 days), showing greater yield crops from INTRINSICTM-treated seeds (whether alone or in combination with CRUISER […]) compared to crops from control seeds.

canola [11] = experiment: Experiment 10 canola yield, field test conditions, first site; conditions: 20 ppm and 40 ppm seed treatment, crop maturation (approximately 90 days)
Description: as §2, with “10” for “7”, “11” for “8”, “INTRINSIC™” for “INTRINSIC™,”, “yield” for “growth”, “conditions. FIGS. 10(a) and 10(b) display yield results at crop maturation (approximately 90 days) at a first site, showing greater yield crops from treated seeds compared to crops from control seeds. FIGS. 11(a) and 11(b) display yield results at crop maturation (approximately 90 days) at a second site, again showing greater yield crops from treated seeds compared to crops from control seeds.” for “conditions.”

canola [12] = experiment: Experiment 11 canola yield, field test conditions, second site; conditions: 20 ppm and 40 ppm seed treatment, crop maturation (approximately 90 days)
Description: as §2, with “10” for “7”, “11” for “8”, “INTRINSIC™” for “INTRINSIC™,”, “yield” for “growth”, “conditions. FIGS. 10(a) and 10(b) display yield results at crop maturation (approximately 90 days) at a first site, showing greater yield crops from treated seeds compared to crops from control seeds. FIGS. 11(a) and 11(b) display yield results at crop maturation (approximately 90 days) at a second site, again showing greater yield crops from treated seeds compared to crops from control seeds.” for “conditions.”

soy bean [13] = experiment: Experiment 12 soy bean yield, field test conditions; conditions: 20 ppm and 40 ppm seed treatment; crop maturation (approximately 90 days)
Description: For the Experiments described below, application of 1,2-dimethyl-4-dimethylaminomethyl-5-hydroxy benzimidazole (referred to herein as INTRINSIC™) was by way of seed treatment. Treated seeds were prepared by mixing 1.0 kg of seed and 2.0 mL of an aqueous solution of INTRINSIC™ comprising 0.1% potassium hydroxide in a ZIPLOC™ bag. Control seeds were prepared by mixing 1.0 kg of seed and 2.0 mL of aqueous 0.1% potassium hydroxide solution in a ZIPLOC™ bag. The seeds and solutions were sufficiently mixed to wet the seeds. The seeds were dried after being wetted. […] Experiment 12 tested the effects of 20 ppm and 40 ppm INTRINSIC™ on soy bean yield under field test conditions. FIGS. 12(a) and 12(b) display yield results at crop maturation (approximately 90 days), showing greater yield crops from treated seeds compared to crops from control seeds.

[14] = 20 ppm and 40 ppm seed treatment
[15] = 40 ppm seed treatment, another set of tests

## Cc1nc2c(CN(C)C)c(O)ccc2n1C [INTRINSIC™, 1,2-dimethyl-4-dimethylaminomethyl-5-hydroxy benzimidazole]
Wheat [1]; 24 hours
  number of wheat seeds broken open compared to control: greater number
Wheat [1]; 48 h, 72 h and 96 h
  number of roots compared to control seedlings: greater number of roots
  root length compared to control seedlings: longer roots
  shoot length compared to control seedlings: longer shoots
Wheat [2]
  number of roots compared to control seedlings: greater number of roots
  root length compared to control seedlings: longer roots
  shoot length compared to control seedlings: longer shoots
Wheat [3]
  number of roots compared to control seedlings: greater number of roots
  root length compared to control seedlings: longer roots
  shoot length compared to control seedlings: longer shoots
Wheat [4]
  number of roots compared to control seedlings: greater number of roots
  root length compared to control seedlings: longer roots
  shoot length compared to control seedlings: longer shoots
Canola [5]
  foliage size compared to control seedlings: larger foliage
  number of roots compared to control seedlings: greater number of roots
  root length compared to control seedlings: longer roots
Soy bean [6]
  foliage size compared to control seedlings: larger foliage
  number of roots compared to control seedlings: greater number of roots
corn
  foliage size compared to control seedlings: larger foliage
  number of roots compared to control seedlings: greater number of roots
Wheat [7]
  root length compared to control seedlings: significant increases
  root surface area compared to control seedlings: significant increases
Wheat [7]; another set of tests
  root weight compared to control seedlings: significant increases
  shoot weight compared to control seedlings: significant increases
Canola [8]
  root length compared to control seedlings: significant increases
  root surface area compared to control seedlings: significant increases
Canola [8]; another set of tests
  root weight compared to control seedlings: significant increases
  shoot weight compared to control seedlings: significant increases
Canola [9]; [14]
  root length compared to control seedlings: significant increases
  root surface area compared to control seedlings: significant increases
Canola [9]; [15]
  root weight compared to control seedlings: significant increases
  shoot weight compared to control seedlings: significant increases
Wheat [10]; 40 ppm seed treatment alone
  wheat yield compared to crops from control seeds: greater yield
Wheat [10]; 40 ppm seed treatment in combination with CRUISER MAXX™
  wheat yield compared to crops from control seeds: greater yield
Canola [11]
  canola yield compared to crops from control seeds: greater yield
Canola [12]
  canola yield compared to crops from control seeds: greater yield
Soy bean [13]
  soy bean yield compared to crops from control seeds: greater yield
